Laboratory results from US8952024B2, “Herbicidal pyrimidone derivatives” (E I du Pont de Nemours and Company, priority 2009, dated 2015).

Columns and labels:
Assay type in all cases: in vivo
[1] = system: naked crabgrass (Digitaria nuda); assay: Test D pre-/postemergence plant response
Outline: (§1)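 Both preemergence and postemergence treatments were made at the same time, with the compound in a non-phytotoxic, surfactant-containing solvent mixture. Plants grew in a greenhouse for 14–21 days before visual evaluation, scored from 0 (no effect) to 100 (complete control).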

[2] = system: field bindweed (Convolvulus arvensis); assay: Test D pre-/postemergence plant response
Outline: as §1

[3] = system: morningglory (pitted morningglory, Ipomoea lacunosa); assay: Test D pre-/postemergence plant response
Outline: as §1

kochia (Kochia scoparia) = assay: Test D pre-/postemergence plant response
Outline: as §1

[4] = system: chickweed (common chickweed, Stellaria media); assay: Test D pre-/postemergence plant response
Outline: as §1

[5] = system: Surinam grass (Brachiaria decumbens); assay: Test D pre-/postemergence plant response
Outline: as §1

[6] = system: sandbur (southern sandbur, Cenchrus echinatus); assay: Test D pre-/postemergence plant response
Outline: as §1

[7] = system: prickly sida (Sida spinosa); assay: Test D pre-/postemergence plant response
Outline: as §1

[8] = system: large crabgrass (Digitaria sanguinalis); assay: Test D pre-/postemergence plant response
Outline: as §1

[9] = system: dayflower (Virginia (VA) dayflower, Commelina virginica); assay: Test D pre-/postemergence plant response
Outline: as §1

[10] = system: Russian thistle (Salsola kali); assay: Test B pre-/postemergence plant response; details: Preemergence, 62 g ai/ha; scale 0 to 100, 0 no effect, 100 complete control
Outline: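 Each species received compound formulated in non-phytotoxic solvent with surfactant, either at planting into a loam and sand blend or as a foliar spray once plants reached 2 to 18 cm in peat-based medium. Plants stayed in the greenhouse 13 to 15 days before visual evaluation against controls, scored 0 (no effect) to 100 (complete control).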

[11] = Postemergence, 31 g ai/ha, scale 0 to 100
[12] = Postemergence, 125 g ai/ha, scale 0 to 100 (0 no effect, 100 complete control)
[13] = Postemergence, 62 g ai/ha, scale 0 to 100 (0 no effect, 100 complete control)
[14] = Preemergence, 16 g ai/ha, scale 0 to 100, 0 no effect, 100 complete control
[15] = Preemergence, 31 g ai/ha, scale 0 to 100 (0 no effect, 100 complete control)
[16] = Preemergence, 62 g ai/ha, scale 0 to 100
[17] = Preemergence, 125 g ai/ha, scale 0 to 100
[18] = Postemergence, 16 g ai/ha, scale 0 to 100

Compound: O=C1CCCC(O)=C1C(=O)c1cnc(-c2cccs2)n(-c2ccccc2)c1=O [Compound 66]
- Plant response rating, Crabgrass, Naked [1, 11]: 50
- Plant response rating, Crabgrass, Naked [1, 12]: 70
- Plant response rating, Crabgrass, Naked [1, 13]: 65
- Plant response rating, Crabgrass, Naked [1, 14]: 0
- Plant response rating, Crabgrass, Naked [1, 15]: 0
- Plant response rating, Crabgrass, Naked [1, 16]: 10
- Plant response rating, Crabgrass, Naked [1, 17]: 25
- Plant response rating, Field Bindweed [2, 18]: 0
- Plant response rating, Field Bindweed [2, 11]: 0
- Plant response rating, Field Bindweed [2, 12]: 0
- Plant response rating, Field Bindweed [2, 13]: 0
- Plant response rating, Field Bindweed [2, 14]: 0
- Plant response rating, Field Bindweed [2, 15]: 0
- Plant response rating, Field Bindweed [2, 16]: 0
- Plant response rating, Field Bindweed [2, 17]: 20
- Plant response rating, Morningglory [3, 18]: 65
- Plant response rating, Morningglory [3, 11]: 70
- Plant response rating, Morningglory [3, 12]: 90
- Plant response rating, Morningglory [3, 13]: 90
- Plant response rating, Morningglory [3, 14]: 0
- Plant response rating, Morningglory [3, 15]: 0
- Plant response rating, Morningglory [3, 16]: 90
- Plant response rating, Morningglory [3, 17]: 95
- Plant response rating, Kochia (kochia (Kochia scoparia); [11]): 25
- Plant response rating, Kochia (kochia (Kochia scoparia); [12]): 40
- Plant response rating, Kochia (kochia (Kochia scoparia); [13]): 25
- Plant response rating, Kochia (kochia (Kochia scoparia); [14]): 0
- Plant response rating, Kochia (kochia (Kochia scoparia); [15]): 65
- Plant response rating, Kochia (kochia (Kochia scoparia); [16]): 65
- Plant response rating, Kochia (kochia (Kochia scoparia); [17]): 90
- Plant response rating, Chickweed [4, 12]: 95
- Plant response rating, Chickweed [4, 13]: 35
- Plant response rating, Chickweed [4, 14]: 0
- Plant response rating, Chickweed [4, 15]: 20
- Plant response rating, Chickweed [4, 16]: 90
- Plant response rating, Chickweed [4, 17]: 98
- Plant response rating, Surinam Grass [5, 11]: 60
- Plant response rating, Surinam Grass [5, 12]: 90
- Plant response rating, Surinam Grass [5, 13]: 90
- Plant response rating, Surinam Grass [5, 14]: 0
- Plant response rating, Surinam Grass [5, 15]: 80
- Plant response rating, Surinam Grass [5, 17]: 98
- Plant response rating, Sandbur [6, 11]: 35
- Plant response rating, Sandbur [6, 12]: 90
- Plant response rating, Sandbur [6, 13]: 35
- Plant response rating, Sandbur [6, 14]: 0
- Plant response rating, Sandbur [6, 15]: 5
- Plant response rating, Sandbur [6, 17]: 80
- Plant response rating, Prickly Sida [7, 11]: 98
- Plant response rating, Prickly Sida [7, 12]: 98
- Plant response rating, Prickly Sida [7, 13]: 98
- Plant response rating, Prickly Sida [7, 14]: 0
- Plant response rating, Prickly Sida [7, 15]: 0
- Plant response rating, Prickly Sida [7, 16]: 5
- Plant response rating, Prickly Sida [7, 17]: 90
- Plant response rating, Crabgrass, Large [8, 18]: 20
- Plant response rating, Crabgrass, Large [8, 11]: 25
- Plant response rating, Crabgrass, Large [8, 12]: 35
- Plant response rating, Crabgrass, Large [8, 13]: 25
- Plant response rating, Crabgrass, Large [8, 14]: 15
- Plant response rating, Crabgrass, Large [8, 15]: 30
- Plant response rating, Crabgrass, Large [8, 16]: 50
- Plant response rating, Crabgrass, Large [8, 17]: 98
- Plant response rating, Dayflower, VA [9, 18]: 0
- Plant response rating, Dayflower, VA [9, 11]: 0
- Plant response rating, Dayflower, VA [9, 12]: 30
- Plant response rating, Dayflower, VA [9, 13]: 0
- Plant response rating, Dayflower, VA [9, 14]: 0
- Plant response rating, Dayflower, VA [9, 15]: 0
- Plant response rating, Dayflower, VA [9, 16]: 0
- Plant response rating, Dayflower, VA [9, 17]: 5
- Plant response rating, Russian Thistle [10]: 0
